Results on 19 compounds are retold here after patent US20230257372A1 (CHONG KUN DANG PHARMACEUTICAL CORP., priority 2020, published 2023).

The structures appear in SMILES notation. Where two headings read alike, the source gives them in different places.

The target of one experiment is T1, human recombinant HDAC1 (Homo sapiens, UniProt Q13547).
T1 construct: purchased Enzo Life Science, Inc. BML-SE456
Briefly: HDAC1 enzyme activity inhibition (HDAC Fluorimetric Drug Discovery Kit). It counts as biochemical. The note with it: read-out: HDAC1. An outline of the steps:
(§1)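 Enzyme at 0.3 µg per well was reacted with 10 μM fluorogenic substrate in presence of 5-fold diluted compound, 30° C for 60 min.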

A further experiment deals with T2, human recombinant HDAC6 (Homo sapiens, UniProt Q9UBN7).
T2 construct: purchased Calbiochem Inc. 382180
T2 sequence (Q9UBN7 1-1215): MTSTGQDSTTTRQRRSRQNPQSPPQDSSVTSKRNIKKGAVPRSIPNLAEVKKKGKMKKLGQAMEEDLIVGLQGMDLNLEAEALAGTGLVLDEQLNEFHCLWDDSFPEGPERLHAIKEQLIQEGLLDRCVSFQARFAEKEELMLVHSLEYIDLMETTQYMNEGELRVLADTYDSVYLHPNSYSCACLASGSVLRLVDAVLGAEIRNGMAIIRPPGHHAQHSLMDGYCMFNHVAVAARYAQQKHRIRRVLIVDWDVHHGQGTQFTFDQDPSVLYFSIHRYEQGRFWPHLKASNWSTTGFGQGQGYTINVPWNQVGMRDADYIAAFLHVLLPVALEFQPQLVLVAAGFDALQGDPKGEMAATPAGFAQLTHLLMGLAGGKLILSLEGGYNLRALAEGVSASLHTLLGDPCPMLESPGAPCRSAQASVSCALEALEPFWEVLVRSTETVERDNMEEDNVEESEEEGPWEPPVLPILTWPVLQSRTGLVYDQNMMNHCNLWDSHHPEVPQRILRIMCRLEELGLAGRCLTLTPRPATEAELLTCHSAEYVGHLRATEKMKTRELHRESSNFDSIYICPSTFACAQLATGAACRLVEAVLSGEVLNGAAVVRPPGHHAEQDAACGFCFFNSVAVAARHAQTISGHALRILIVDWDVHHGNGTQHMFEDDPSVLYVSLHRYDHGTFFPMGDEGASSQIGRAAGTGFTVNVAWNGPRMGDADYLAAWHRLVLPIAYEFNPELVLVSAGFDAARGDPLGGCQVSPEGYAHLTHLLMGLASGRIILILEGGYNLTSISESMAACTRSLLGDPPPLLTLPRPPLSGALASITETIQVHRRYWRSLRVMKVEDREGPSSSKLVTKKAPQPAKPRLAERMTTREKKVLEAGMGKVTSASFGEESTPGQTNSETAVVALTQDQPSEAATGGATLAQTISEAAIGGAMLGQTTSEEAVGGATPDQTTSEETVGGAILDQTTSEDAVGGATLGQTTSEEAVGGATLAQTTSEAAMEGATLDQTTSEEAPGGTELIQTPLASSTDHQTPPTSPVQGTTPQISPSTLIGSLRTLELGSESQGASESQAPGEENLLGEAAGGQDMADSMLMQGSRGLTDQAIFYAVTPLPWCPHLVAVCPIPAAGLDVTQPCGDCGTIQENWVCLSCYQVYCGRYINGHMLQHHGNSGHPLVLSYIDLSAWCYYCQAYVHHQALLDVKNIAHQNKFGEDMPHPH
Briefly: HDAC6 enzyme activity inhibition (HDAC Fluorimetric Drug Discovery Kit). The experiment is classed as biochemical. An outline of the steps: as §1

Where [1] appears, read: human recombinant HDAC1, Fluor de Lys substrate, 30° C. 60 minutes.
Setting [2] is: human recombinant HDAC6, same protocol as HDAC1.
[3] abbreviates: human recombinant HDAC1, IC50 calculated with GraphPad Prism.
Where [4] appears, read: human recombinant HDAC6, IC50 calculated with GraphPad Prism.

T1 sequence (Q13547 whole entry): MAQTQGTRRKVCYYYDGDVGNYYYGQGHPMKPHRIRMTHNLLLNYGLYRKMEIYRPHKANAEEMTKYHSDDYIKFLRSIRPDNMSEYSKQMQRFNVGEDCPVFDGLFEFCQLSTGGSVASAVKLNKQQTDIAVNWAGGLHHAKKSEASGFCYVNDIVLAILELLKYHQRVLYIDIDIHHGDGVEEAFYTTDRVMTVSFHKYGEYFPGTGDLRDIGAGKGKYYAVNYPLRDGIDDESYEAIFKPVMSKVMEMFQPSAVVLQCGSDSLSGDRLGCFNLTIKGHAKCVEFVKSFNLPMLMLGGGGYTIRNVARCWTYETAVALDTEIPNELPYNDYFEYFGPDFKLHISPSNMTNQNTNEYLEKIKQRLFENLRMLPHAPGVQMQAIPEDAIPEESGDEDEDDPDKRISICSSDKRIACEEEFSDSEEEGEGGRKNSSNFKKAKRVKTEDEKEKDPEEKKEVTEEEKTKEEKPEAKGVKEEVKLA

Take `CN1Cc2cccc(-c3cn(Cc4ccc(-c5nnc(C(F)F)o5)cc4)nn3)c2C1` [Compound 4529, 2-(difluoromethyl)-5-(4-((4-(2-methylisoindolin-4-yl)-1H-1,2,3-triazol-1-yl)methyl)phenyl)-1,3,4-oxadiazole]: the IC50 on human recombinant HDAC1 (setting [1]) was more than 50 µM; on human recombinant HDAC6 (setting [2]), 0.16 µM. Besides, the “HDAC6 selectivity (fold)” value on human recombinant HDAC6 (HDAC6 over HDAC1) was 313 fold.

For the compound `CC(=O)N1CCC(Cc2cn(Cc3ccc(-c4nnc(C(F)F)o4)cn3)nn2)CC1` [Compound 4015, 1-(4-((1-((5-(5-(difluoromethyl)-1,3,4-oxadiazol-2-yl)pyridin-2-yl)methyl)-1H-1,2,3-triazol-4-yl)methyl)piperidin-1-yl)ethan-1-one], the IC50 at human recombinant HDAC1 (setting [3]) was more than 50 µM; at human recombinant HDAC6 (setting [4]) it was 0.471 µM. In addition, on human recombinant HDAC6 (HDAC1 IC50 / HDAC6 IC50), the “HDAC6 selectivity (fold)” value was found to be 106 fold.

Take `Fc1cc(-c2nnc(C(F)F)o2)ccc1Cn1cc(-c2ccc3c(c2)CN(C2COC2)CC3)nn1` [Compound 4367, 2-(difluoromethyl)-5-(3-fluoro-4-((4-(2-(oxetan-3-yl)-1,2,3,4-tetrahydroisoquinolin-7-yl)-1H-1,2,3-triazol-1-yl)methyl)phenyl)-1,3,4-oxadiazole]: the IC50 at human recombinant HDAC1 (setting [3]) is more than 50 µM; on human recombinant HDAC6 (setting [4]), 0.0413 µM. Also, on human recombinant HDAC6 (HDAC1 IC50 / HDAC6 IC50), the “HDAC6 selectivity (fold)” value was found to be 1210 fold.

As for `CN(C)c1cccc(-c2cn(Cc3ccc(-c4nnc(C(F)F)o4)cn3)nn2)c1` [Compound 3824, 3-(1-((5-(5-(difluoromethyl)-1,3,4-oxadiazol-2-yl)pyridin-2-yl)methyl)-1H-1,2,3-triazol-4-yl)-N,N-dimethylaniline], the values for the IC50 on human recombinant HDAC1 (setting [3]) and on human recombinant HDAC6 (setting [4]) were more than 50 µM and 0.0205 µM, respectively. The “HDAC6 selectivity (fold)” value at human recombinant HDAC6 (HDAC1 IC50 / HDAC6 IC50) is 2439 fold.

Regarding `CN1CCN(c2cc(-c3cn(Cc4ccc(-c5nnc(C(F)F)o5)cc4)nn3)ccc2F)CC1` [Compound 4419, 2-(difluoromethyl)-5-(4-((4-(4-fluoro-3-(4-methylpiperazin-1-yl)phenyl)-1H-1,2,3-triazol-1-yl)methyl)phenyl)-1,3,4-oxadiazole], the IC50 on human recombinant HDAC1 (setting [3]) is more than 50 µM; at human recombinant HDAC6 (setting [4]), 0.159 µM. Also, the “HDAC6 selectivity (fold)” value on human recombinant HDAC6 (HDAC1 IC50 / HDAC6 IC50) amounted to 315 fold.

Take `CC(=O)N1CCC(c2cn(Cc3ccc(-c4nnc(C(F)F)o4)cn3)nn2)CC1` [Compound 3811, 1-(4-(1-((5-(5-(difluoromethyl)-1,3,4-oxadiazol-2-yl)pyridin-2-yl)methyl)-1H-1,2,3-triazol-4-yl)piperidin-1-yl)ethan-1-one]: the IC50 on human recombinant HDAC1 (setting [3]) is more than 50 µM; on human recombinant HDAC6 (setting [4]), 0.207 µM. On human recombinant HDAC6 (HDAC1 IC50 / HDAC6 IC50), the “HDAC6 selectivity (fold)” value is 241 fold.

For the compound `Fc1cc(-c2nnc(C(F)F)o2)ccc1Cn1cc(-c2ccc3c(c2)CN(C2CCC2)C3)nn1` [Compound 4518, 2-(4-((4-(2-cyclobutylisoindolin-5-yl)-1H-1,2,3-triazol-1-yl)methyl)-3-fluorophenyl)-5-(difluoromethyl)-1,3,4-oxadiazole], the IC50 was more than 50 µM on human recombinant HDAC1 (setting [1]) and 0.0507 µM at human recombinant HDAC6 (setting [2]). The “HDAC6 selectivity (fold)” value at human recombinant HDAC6 (HDAC6 over HDAC1) stood at 986 fold.

As to `Fc1cc(-c2nnc(C(F)F)o2)ccc1Cn1cc(-c2cccc(NC3CCCCC3)c2)nn1` [Compound 4330, N-cyclohexyl-3-(1-(4-(5-(difluoromethyl)-1,3,4-oxadiazol-2-yl)-2-fluorobenzyl)-1H-1,2,3-triazol-4-yl)aniline], the IC50 was more than 50 µM at human recombinant HDAC1 (setting [3]) and 0.186 µM at human recombinant HDAC6 (setting [4]). In addition, the “HDAC6 selectivity (fold)” value on human recombinant HDAC6 (HDAC1 IC50 / HDAC6 IC50) came out at 268 fold.

As for `Fc1cc(-c2nnc(C(F)F)o2)cnc1Cn1cc(-c2ccc3[nH]ncc3c2)nn1` [Compound 18920, 2-(6-((4-(1H-indazol-5-yl)-1H-1,2,3-triazol-1-yl)methyl)-5-fluoropyridin-3-yl)-5-(difluoromethyl)-1,3,4-oxadiazole], the IC50 at human recombinant HDAC1 (setting [1]) is more than 50 µM; at human recombinant HDAC6 (setting [2]), 0.042 µM. For the same compound, on human recombinant HDAC6 (HDAC6 over HDAC1), the “HDAC6 selectivity (fold)” value was determined as 1190 fold.

In the case of `CCN1CCc2ccc(-c3cn(Cc4ccc(-c5nnc(C(F)F)o5)cn4)nn3)cc2C1` [Compound 4211, 2-(difluoromethyl)-5-(6-((4-(2-ethyl-1,2,3,4-tetrahydroisoquinolin-7-yl)-1H-1,2,3-triazol-1-yl)methyl)pyridin-3-yl)-1,3,4-oxadiazole], the IC50 is more than 50 µM on human recombinant HDAC1 (setting [3]) and 0.0481 µM at human recombinant HDAC6 (setting [4]). Further, the “HDAC6 selectivity (fold)” value at human recombinant HDAC6 (HDAC1 IC50 / HDAC6 IC50) stood at 1039 fold.

Regarding `FC(F)c1nnc(-c2ccc(Cn3cc(-c4ccccc4)nn3)cc2)o1` [Compound 3657, 2-(difluoromethyl)-5-(4-((4-phenyl-1H-1,2,3-triazol-1-yl)methyl)phenyl)-1,3,4-oxadiazole], the IC50 was more than 50 µM on human recombinant HDAC1 (setting [3]) and 0.0948 µM at human recombinant HDAC6 (setting [4]). In addition, the “HDAC6 selectivity (fold)” value on human recombinant HDAC6 (HDAC1 IC50 / HDAC6 IC50) came out at 527 fold.

For `CCCN1CCN(c2cccc(-c3cn(Cc4ccc(-c5nnc(C(F)F)o5)cc4)nn3)c2)CC1` [Compound 4369, 2-(difluoromethyl)-5-(4-((4-(3-(4-propylpiperazin-1-yl)phenyl)-1H-1,2,3-triazol-1-yl)methyl)phenyl)-1,3,4-oxadiazole], the IC50 on human recombinant HDAC1 (setting [3]) is more than 50 µM; on human recombinant HDAC6 (setting [4]), 0.0548 µM. For the same compound, the “HDAC6 selectivity (fold)” value at human recombinant HDAC6 (HDAC1 IC50 / HDAC6 IC50) is recorded as 912 fold.

With `Fc1ccc(-c2cn(Cc3ccc(-c4nnc(C(F)F)o4)cc3F)nn2)cc1F` [Compound 3662, 2-(difluoromethyl)-5-(4-((4-(3,4-difluorophenyl)-1H-1,2,3-triazol-1-yl)methyl)-3-fluorophenyl)-1,3,4-oxadiazole], the IC50 at human recombinant HDAC1 (setting [3]) is more than 50 µM; at human recombinant HDAC6 (setting [4]), 0.173 µM. For the same compound, the “HDAC6 selectivity (fold)” value at human recombinant HDAC6 (HDAC1 IC50 / HDAC6 IC50) worked out at 289 fold.

For the compound `Fc1cc(-c2nnc(C(F)F)o2)ccc1Cn1cc(-c2cncc(Br)c2)nn1` [Compound 16930, 2-(4-((4-(5-bromopyridin-3-yl)-1H-1,2,3-triazol-1-yl)methyl)-3-fluorophenyl)-5-(difluoromethyl)-1,3,4-oxadiazole], the IC50 at human recombinant HDAC1 (setting [1]) was more than 50 µM; on human recombinant HDAC6 (setting [2]), 0.0479 µM. Besides, the “HDAC6 selectivity (fold)” value at human recombinant HDAC6 (HDAC6 over HDAC1) was 1043 fold.

For the compound `Fc1cc(-c2nnc(C(F)F)o2)ccc1Cn1cc(-c2cccc3c2OC(F)(F)O3)nn1` [Compound 18470, 2-(4-((4-(2,2-difluorobenzo[d][1,3]dioxol-4-yl)-1H-1,2,3-triazol-1-yl)methyl)-3-fluorophenyl)-5-(difluoromethyl)-1,3,4-oxadiazole], the IC50 was more than 50 µM at human recombinant HDAC1 (setting [1]) and 0.0987 µM at human recombinant HDAC6 (setting [2]). Further, the “HDAC6 selectivity (fold)” value on human recombinant HDAC6 (HDAC6 over HDAC1) was 506 fold.

Take `FC(F)(F)c1nnc(-c2ccc(Cn3nnc(-c4cccs4)n3)nc2)o1` [Compound 4233]: the IC50 is more than 50 µM at human recombinant HDAC1 (setting [3]) and 0.013 µM on human recombinant HDAC6 (setting [4]). The “HDAC6 selectivity (fold)” value on human recombinant HDAC6 (HDAC1 IC50 / HDAC6 IC50) was 3846 fold.

For the compound `O=S1(=O)CCN(Cc2cccc(-c3cn(Cc4ccc(-c5nnc(C(F)F)o5)cc4)nn3)c2)CC1` [Compound 4412, 4-(3-(1-(4-(5-(difluoromethyl)-1,3,4-oxadiazol-2-yl)benzyl)-1H-1,2,3-triazol-4-yl)benzyl)thiomorpholine 1,1-dioxide], the IC50 was more than 50 µM on human recombinant HDAC1 (setting [3]) and 0.116 µM on human recombinant HDAC6 (setting [4]). At human recombinant HDAC6 (HDAC1 IC50 / HDAC6 IC50), the “HDAC6 selectivity (fold)” value stood at 432 fold.

Turning to `CCN1CC(N2CCC(c3cccc(-c4cn(Cc5ccc(-c6nnc(C(F)F)o6)cc5F)nn4)c3)CC2)C1` [Compound 4295, 2-(difluoromethyl)-5-(4-((4-(3-(1-(1-ethylazetidin-3-yl)piperidin-4-yl)phenyl)-1H-1,2,3-triazol-1-yl)methyl)-3-fluorophenyl)-1,3,4-oxadiazole], the IC50 on human recombinant HDAC1 (setting [3]) is more than 50 µM; at human recombinant HDAC6 (setting [4]) it was 0.0452 µM. For the same compound, the “HDAC6 selectivity (fold)” value at human recombinant HDAC6 (HDAC1 IC50 / HDAC6 IC50) was found to be 1106 fold.

For `CC(=O)N1CC(c2cn(Cc3ccc(-c4nnc(C(F)F)o4)cn3)nn2)C1` [Compound 3956, 1-(3-(1-((5-(5-(difluoromethyl)-1,3,4-oxadiazol-2-yl)pyridin-2-yl)methyl)-1H-1,2,3-triazol-4-yl)azetidin-1-yl)ethan-1-one], the IC50 on human recombinant HDAC1 (setting [3]) is more than 50 µM; at human recombinant HDAC6 (setting [4]), 0.536 µM. Further, at human recombinant HDAC6 (HDAC1 IC50 / HDAC6 IC50), the “HDAC6 selectivity (fold)” value was 93 fold.
